biological target: recombinant human 5-HT5A receptor (Homo sapiens, UniProt P47898); test: [3H]LSD radioligand binding assay; conditions: not given
Description: A [^3H]LSD radioligand binding assay was used to determine the affinity of the compounds for the recombinant human 5-HT5A receptor, in membranes from transiently (cDNA) expressed 5-HT5A receptors in Human Embryonic Kidney-EBNA (HEK-EBNA) cells. Assay buffer consisted of Tris (50 mM) buffer containing 1 mM EGTA, 10 mM MgCl2 (pH 7.4) and 10 μM pargyline. The binding assay was carried out in 96-well-plates in the presence of [^3H]LSD (approximately 1 nM), approximately 2 μg/well of membrane protein, and 0.5 mg of Ysi-poly-1-lysine SPA beads in a final volume of 200 μl of buffer. Non-specific binding was defined using methiothepin 2 μM. Compounds were tested at 10 concentrations. All assays were conducted in duplicate and repeated at least two times. Assay plates were incubated for 120 min at room temperature before centrifugation. Bound ligand was determined using a Packard Topcount scintillation counter. IC50 values were calculated using a non-linear curve fitting program and Ki values calculated using the Cheng-Prussoff equation.

Sequence of recombinant human 5-HT5A receptor (P47898 whole entry): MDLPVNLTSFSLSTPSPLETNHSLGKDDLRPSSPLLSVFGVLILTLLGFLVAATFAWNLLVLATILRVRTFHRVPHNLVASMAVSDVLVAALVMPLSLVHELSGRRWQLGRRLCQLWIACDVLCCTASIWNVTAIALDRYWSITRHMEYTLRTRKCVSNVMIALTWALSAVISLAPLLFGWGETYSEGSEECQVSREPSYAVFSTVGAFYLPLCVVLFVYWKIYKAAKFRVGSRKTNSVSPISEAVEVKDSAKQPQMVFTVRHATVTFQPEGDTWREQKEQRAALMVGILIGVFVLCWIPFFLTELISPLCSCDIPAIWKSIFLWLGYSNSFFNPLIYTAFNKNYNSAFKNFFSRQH

SMILES | Ki [nM]
CN1C2COCC1CN(CC(=O)Nc1ccc3c(c1)COC(N[C@@H]1CCc4ccccc41)=N3)C2 [Example 159, N-[2-((R)-Indan-1-ylamino)-4H-benzo[d][1,3]oxazin-6-yl]-2-(9-methyl-3-oxa-7,9-diaza-bicyclo[3.3.1]non-7-yl)-acetamide] | 18.9

same assay, conditions: [3H]LSD (approximately 1 nM); membranes from HEK-EBNA cells transiently expressing 5-HT5A; Ki by Cheng-Prussoff equation; read-out: Ki

SMILES | Ki [nM]
O=C(CN1CCN(CC(F)(F)F)CC1)Nc1ccc2c(c1)COC(N[C@@H]1CCc3ccccc31)=N2 [Example 70, N-[2-((R)-Indan-1-ylamino)-4H-benzo[d][1,3]oxazin-6-yl]-2-[4-(2,2,2-trifluoro-ethyl)-piperazin-1-yl]-acetamide] | 33
CC(C)(O)CNCC(=O)Nc1ccc2c(c1)COC(N[C@@H]1CCc3ccccc31)=N2 [Example 68, 2-(2-Hydroxy-2-methyl-propylamino)-N-[2-((R)-indan-1-ylamino)-4H-benzo[d][1,3]oxazin-6-yl]-acetamide] | 9.23
O=C(Nc1ccc2c(c1)COC(NC1CCCCCC1)=N2)C1CC1 [Example 95, Cyclopropanecarboxylic acid (2-cycloheptylamino-4H-benzo[d][1,3]oxazin-6-yl)-amide] | 5.53
COCC(=O)Nc1ccc2c(c1)COC(NC1CCc3cccc(OC)c31)=N2 (racemic) [Example 24, rac-2-Methoxy-N-[2-(7-methoxy-indan-1-ylamino)-4H-benzo[d][1,3]oxazin-6-yl]-acetamide] | 4.83
Nc1ccc2c(c1)COC(N[C@@H]1CCc3ccccc31)=N2 [Example 2, (R)-N^2-Indan-1-yl-4H-benzo[d][1,3]oxazine-2,6-diamine] | 1.04
COCCNCC(=O)Nc1ccc2c(c1)COC(NC1COc3cc(F)ccc31)=N2 (racemic) [Example 42, rac-N-[2-(6-Fluoro-2,3-dihydro-benzofuran-3-ylamino)-4H-benzo[d][1,3]oxazin-6-yl]-2-(2-methoxy-ethylamino)-acetamide] | 56.4
COc1ccccc1CNC1=Nc2ccc(NC(=O)CN3CCN(C)CC3)cc2CO1 [Example 26, N-[2-(2-Methoxy-benzylamino)-4H-benzo[d][1,3]oxazin-6-yl]-2-(4-methyl-piperazin-1-yl)-acetamide] | 6.12
O=C(CN1CCOCC1)Nc1ccc2c(c1)COC(N[C@@H]1CCc3ccccc31)=N2 [Example 37, N-[2-((R)-Indan-1-ylamino)-4H-benzo[d][1,3]oxazin-6-yl]-2-morpholin-4-yl-acetamide] | 8.74
CN(C)S(=O)(=O)Nc1ccc2c(c1)COC(N[C@@H]1CCc3ccccc31)=N2 [Example 27, N,N-(Dimethyl)-N′-{2-((R)-indan-1-ylamino)-4H-benzo[d][1,3]oxazin-6-yl}-sulfamide] | 2.36
COc1cccc2c1C(NC1=Nc3ccc(NC(=O)NC(C)C)cc3CO1)CO2 (racemic) [Example 16, rac-1-Isopropyl-3-[2-(4-methoxy-2,3-dihydro-benzofuran-3-ylamino)-4H-benzo[d][1,3]oxazin-6-yl]-urea] | 2.93
O=S(=O)(Nc1ccc2c(c1)COC(N[C@@H]1CCc3ccccc31)=N2)N1CCOCC1 [Example 31, Morpholine-4-sulfonic acid [2-((R)-indan-1-ylamino)-4H-benzo[d][1,3]oxazin-6-yl]-amide] | 4.38
COc1ccccc1CNC1=Nc2ccc(NC(=O)CN3CCN(C(C)C)CC3)cc2CO1 [Example 29, 2-(4-Isopropyl-piperazin-1-yl)-N-[2-(2-methoxy-benzylamino)-4H-benzo[d][1,3]oxazin-6-yl]-acetamide] | 10.9
Nc1ccc2c(c1)COC(NC1CCOc3ccccc31)=N2 (racemic) [Example 75, rac-N^2-Chroman-4-yl-4H-benzo[d][1,3]oxazine-2,6-diamine] | 16.3
COc1cccc2c1C(NC1=Nc3ccc(NS(=O)(=O)N(C)C)cc3CO1)CO2 (racemic) [Example 49, rac-N,N-(Dimethyl)-N′-{2-(4-Methoxy-2,3-dihydro-benzofuran-3-ylamino)-4H-benzo[d][1,3]oxazin-6-yl}-sulfamide] | 21.1
COCC(=O)Nc1ccc2c(c1)COC(NC1CCc3cc(F)ccc31)=N2 (racemic) [Example 21, rac-N-[2-(5-Fluoro-indan-1-ylamino)-4H-benzo[d][1,3]oxazin-6-yl]-2-methoxy-acetamide] | 5.5
COc1cccc2c1C(NC1=Nc3ccc(NC(=O)CN4CCOCC4)cc3CO1)CC2 (racemic) [Example 55, rac-N-[2-(7-Methoxy-indan-1-ylamino)-4H-benzo[d][1,3]oxazin-6-yl]-2-morpholin-4-yl-acetamide] | 10.3
COCC(=O)Nc1ccc2c(c1)COC(N[C@@H]1CCc3ccccc31)=N2 [Example 19, N-[2-((R)-Indan-1-ylamino)-4H-benzo[d][1,3]oxazin-6-yl]-2-methoxy-acetamide] | 4.1
CN1CCN(CC(=O)Nc2ccc3c(c2)COC(NC2COc4cc(F)ccc42)=N3)CC1 (racemic) [Example 44, rac-N-[2-(6-Fluoro-2,3-dihydro-benzofuran-3-ylamino)-4H-benzo[d][1,3]oxazin-6-yl]-2-(4-methyl-piperazin-1-yl)-acetamide] | 6.5
COc1cccc2c1C(NC1=Nc3ccc(NS(=O)(=O)N4CCOCC4)cc3CO1)CC2 (racemic) [Example 63, rac-Morpholine-4-sulfonic acid [2-(7-methoxy-indan-1-ylamino)-4H-benzo[d][1,3]oxazin-6-yl]-amide] | 3.32

Next, values leading:

Ki [nM] | SMILES
13.5 | C=Cc1ccc2c(c1)COC(N[C@@H]1CCc3ccccc31)=N2 [Example 134, (R)-Indan-1-yl-(6-vinyl-4H-benzo[d][1,3]oxazin-2-yl)-amine]
23.5 | O=C(Nc1ccc2c(c1)COC(Nc1cccc(C3CC3)c1)=N2)C1CC1 [Example 128, Cyclopropanecarboxylic acid [2-(3-cyclopropyl-phenylamino)-4H-benzo[d][1,3]oxazin-6-yl]-amide]
299 | O=S(=O)(Nc1ccc2c(c1)COC(Nc1cccc(C3CC3)c1)=N2)c1ccccc1 [Example 150, N-[2-(3-Cyclopropyl-phenylamino)-4H-benzo[d][1,3]oxazin-6-yl]-benzenesulfonamide]
27.3 | c1ccc2c(c1)CC[C@H]2NC1=Nc2ccc(C3CC3)cc2CO1 [Example 152, (6-Cyclopropyl-4H-benzo[d][1,3]oxazin-2-yl)-(R)-indan-1-yl-amine]
15.7 | N#Cc1ccc2c(c1)COC(N[C@@H]1CCc3ccccc31)=N2 [Example 117, 2-((R)-Indan-1-ylamino)-4H-benzo[d][1,3]oxazine-6-carbonitrile]
138 | O=S(=O)(Nc1ccc2c(c1)COC(Nc1cccc(C3CC3)c1)=N2)C1CC1 [Example 149, Cyclopropanesulfonic acid [2-(3-cyclopropyl-phenylamino)-4H-benzo[d][1,3]oxazin-6-yl]-amide]
2.82 | COc1cccc2c1C(NC1=Nc3ccc(NS(=O)(=O)C4CC4)cc3CO1)CC2 (racemic) [Example 103, rac-Cyclopropanesulfonic acid [2-(7-methoxy-indan-1-ylamino)-4H-benzo[d][1,3]oxazin-6-yl]-amide]
4.56 | COc1cccc2c1C(NC1=Nc3ccc(Nc4nnn(C(C)(C)C)n4)cc3CO1)CC2 (racemic) [Example 112, rac-N^6-(2-tert-Butyl-2H-tetrazol-5-yl)-N^2-(7-methoxy-indan-1-yl)-4H-benzo[d][1,3]oxazine-2,6-diamine]
30.4 | COc1cccc2c1C(NC1=Nc3ccc(NS(C)(=O)=O)cc3CO1)CO2 (racemic) [Example 114, rac-N-[2-(4-Methoxy-2,3-dihydro-benzofuran-3-ylamino)-4H-benzo[d][1,3]oxazin-6-yl]-methanesulfonamide]
3.7 | COCC1CN(CC(=O)Nc2ccc3c(c2)COC(NC2CCc4cccc(OC)c42)=N3)CCN1C (centres unmarked) [Example 146, N-[2-(7-Methoxy-indan-1-ylamino)-4H-benzo[d][1,3]oxazin-6-yl]-2-(3-methoxymethyl-4-methyl-piperazin-1-yl)-acetamide]
114 | CC(C)NC(=O)Nc1ccc2c(c1)COC(Nc1cccc(C3CC3)c1)=N2 [Example 151, 1-[2-(3-Cyclopropyl-phenylamino)-4H-benzo[d][1,3]oxazin-6-yl]-3-isopropyl-urea]
3.3 | O=C(Nc1ccc2c(c1)COC(NCCOc1ccccc1)=N2)C1CC1 [Example 96, Cyclopropanecarboxylic acid [2-(2-phenoxy-ethylamino)-4H-benzo[d][1,3]oxazin-6-yl]-amide]
17.9 | CC1(C)Cc2cccc(NC3=Nc4ccc(NCc5ncc[nH]5)cc4CO3)c2O1 [Example 131, N^2-(2,2-Dimethyl-2,3-dihydro-benzofuran-7-yl)-N^6-(1H-imidazol-2-ylmethyl)-4H-benzo[d][1,3]oxazine-2,6-diamine]
16.1 | COC[C@@H]1CN(CC(=O)Nc2ccc3c(c2)COC(N[C@@H]2CCc4ccccc42)=N3)C[C@@H](COC)N1C (mixture of isomers) [Example 158, 2-((3SR,5SR)-3,5-Bis-(methoxymethyl)-4-methyl-piperazin-1-yl)-N-[2-((R)-indan-1-ylamino)-4H-benzo[d][1,3]oxazin-6-yl]-acetamide]
135 | O=C(CN1CCOCC1)Nc1ccc2c(c1)COC(NC1CCOc3ccccc31)=N2 (racemic) [Example 121, N-[2-(Chroman-4-ylamino)-4H-benzo[d][1,3]oxazin-6-yl]-2-morpholin-4-yl-acetamide]

Source: patent publication US8163740B2, “6-substituted benzoxazines” (Hoffmann-La Roche Inc., priority 2008, dated 2012)
